Literature values in patent US20230087473A1, “COMPOSITION OF SUSPOEMULSION FORMULATION OF ANTHELMINTIC DRUGS WITH ESSENTIAL OILS FOR NASO-PULMONARY ADMINISTRATION” (priority 2021, published 2023).

Columns and labels:
[1] = in vivo
[2] = tested on: Musca Domenstica; conditions: nasal irrigation with ivermectin solution, within 15 minutes
[3] = tested on: SARS-COV-2; conditions: in-vitro study

| Compound | bioavailability [1] | larvae self-expulsed by the patient [2] | effect on replication of SARS-COV-2 [3] |
| --- | --- | --- | --- |
| O=C(Nc1ccc([N+](=O)[O-])cc1Cl)c1cc(Cl)ccc1O [Niclosamide] | very low bioavailability |  |  |
| Ivermectin |  | approximately 50 larvae | inhibitory role |
